For five compounds, IC50 results are on record in ChEMBL document CHEMBL5729772, “MYST family histone acetyltransferase inhibitors” (2023).

The target in test [1] is Histone acetyltransferase KAT6A (Homo sapiens, UniProt Q92794). Put plainly: KAT-6A Enzyme Assay: KAT-6A. Enzyme assay buffer was 50 mM Tris pH 8.0, 0.002% Tween20, 0.005% bovine skin gelatin, and 1 mM dithiothreitol (DTT). For determination of IC50values, compounds were serially diluted with 2% (v/v) DMSO in the final reaction, pre-incubating each dilution of each compound with 40 μL of assay buffer containing KAT-6A enzyme (12.5 nM final concentration). 10 μL of assay buffer containing 1 μM peptide substrate and 1 μM acetyl coenzyme A (final concentrations) was added. Reactions (50 μL total) were then carried out at 25° C. for 90 minutes. Reactions were terminated by the addition of 0.5% formic acid (final concentration), and a sample of each reaction was analyzed by SAMDI Tech, Inc. (Chicago, Ill.) using self-assembled monolayer desorption/ionization time-of-flight mass spectrometry (Mrksich, M. (2008) Mass spectrometry of self-assembled monolayers: a new tool for molecular surface science. ACS Nano 2, 7-18).
Sequence of Histone acetyltransferase KAT6A (Q92794 whole entry): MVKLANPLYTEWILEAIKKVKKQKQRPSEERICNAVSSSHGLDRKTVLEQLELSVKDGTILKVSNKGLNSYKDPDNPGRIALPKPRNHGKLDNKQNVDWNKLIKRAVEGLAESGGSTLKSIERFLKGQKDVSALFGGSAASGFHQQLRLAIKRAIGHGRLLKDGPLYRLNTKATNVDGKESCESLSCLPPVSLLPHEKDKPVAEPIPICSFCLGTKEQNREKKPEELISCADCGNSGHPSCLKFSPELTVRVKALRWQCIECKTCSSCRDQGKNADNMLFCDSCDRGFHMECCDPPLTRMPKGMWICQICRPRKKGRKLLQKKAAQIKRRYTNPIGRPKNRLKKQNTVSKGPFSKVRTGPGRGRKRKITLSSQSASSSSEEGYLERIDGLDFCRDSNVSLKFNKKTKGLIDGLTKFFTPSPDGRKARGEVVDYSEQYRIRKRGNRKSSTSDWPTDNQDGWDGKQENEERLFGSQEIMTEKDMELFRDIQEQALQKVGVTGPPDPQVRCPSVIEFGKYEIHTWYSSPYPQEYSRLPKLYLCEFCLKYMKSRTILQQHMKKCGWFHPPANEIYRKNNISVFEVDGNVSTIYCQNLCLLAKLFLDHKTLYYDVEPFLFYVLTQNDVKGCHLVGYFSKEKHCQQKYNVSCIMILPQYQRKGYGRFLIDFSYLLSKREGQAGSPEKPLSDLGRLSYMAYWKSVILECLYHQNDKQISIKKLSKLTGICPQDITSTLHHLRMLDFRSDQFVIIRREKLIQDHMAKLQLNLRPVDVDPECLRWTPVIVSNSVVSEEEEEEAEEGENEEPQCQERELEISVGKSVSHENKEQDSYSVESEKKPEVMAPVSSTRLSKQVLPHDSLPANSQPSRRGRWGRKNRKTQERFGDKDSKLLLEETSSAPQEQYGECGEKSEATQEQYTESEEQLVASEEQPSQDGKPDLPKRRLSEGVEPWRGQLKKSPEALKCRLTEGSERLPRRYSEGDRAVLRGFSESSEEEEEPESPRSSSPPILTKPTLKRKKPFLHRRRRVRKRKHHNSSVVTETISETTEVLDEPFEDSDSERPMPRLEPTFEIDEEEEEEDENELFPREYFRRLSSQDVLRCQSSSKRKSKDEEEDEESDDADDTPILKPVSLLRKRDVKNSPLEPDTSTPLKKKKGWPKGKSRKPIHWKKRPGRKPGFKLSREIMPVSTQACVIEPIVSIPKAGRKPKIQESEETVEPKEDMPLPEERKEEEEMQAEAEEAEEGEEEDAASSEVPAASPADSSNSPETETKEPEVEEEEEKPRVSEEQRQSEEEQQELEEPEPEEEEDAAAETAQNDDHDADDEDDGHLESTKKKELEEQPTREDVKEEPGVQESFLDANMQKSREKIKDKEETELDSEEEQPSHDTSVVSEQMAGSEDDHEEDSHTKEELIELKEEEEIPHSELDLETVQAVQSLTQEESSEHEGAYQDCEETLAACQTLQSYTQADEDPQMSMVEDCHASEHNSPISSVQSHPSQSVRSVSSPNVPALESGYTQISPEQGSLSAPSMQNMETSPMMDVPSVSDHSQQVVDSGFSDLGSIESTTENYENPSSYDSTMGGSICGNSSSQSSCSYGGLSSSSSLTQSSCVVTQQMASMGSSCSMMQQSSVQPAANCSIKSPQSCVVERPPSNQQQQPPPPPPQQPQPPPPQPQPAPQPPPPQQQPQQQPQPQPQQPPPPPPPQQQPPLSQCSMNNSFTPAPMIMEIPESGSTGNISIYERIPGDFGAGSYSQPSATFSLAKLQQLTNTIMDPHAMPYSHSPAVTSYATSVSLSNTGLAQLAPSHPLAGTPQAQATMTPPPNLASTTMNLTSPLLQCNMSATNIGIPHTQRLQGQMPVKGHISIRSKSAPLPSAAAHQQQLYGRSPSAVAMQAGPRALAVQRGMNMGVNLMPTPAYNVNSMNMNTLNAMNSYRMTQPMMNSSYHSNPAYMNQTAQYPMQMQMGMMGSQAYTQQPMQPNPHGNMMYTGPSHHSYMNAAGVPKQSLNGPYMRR

For test [2], the target named is T1, Histone acetyltransferase KAT8 (Homo sapiens, UniProt Q9H7Z6).
T1 sequence (Q9H7Z6 whole entry): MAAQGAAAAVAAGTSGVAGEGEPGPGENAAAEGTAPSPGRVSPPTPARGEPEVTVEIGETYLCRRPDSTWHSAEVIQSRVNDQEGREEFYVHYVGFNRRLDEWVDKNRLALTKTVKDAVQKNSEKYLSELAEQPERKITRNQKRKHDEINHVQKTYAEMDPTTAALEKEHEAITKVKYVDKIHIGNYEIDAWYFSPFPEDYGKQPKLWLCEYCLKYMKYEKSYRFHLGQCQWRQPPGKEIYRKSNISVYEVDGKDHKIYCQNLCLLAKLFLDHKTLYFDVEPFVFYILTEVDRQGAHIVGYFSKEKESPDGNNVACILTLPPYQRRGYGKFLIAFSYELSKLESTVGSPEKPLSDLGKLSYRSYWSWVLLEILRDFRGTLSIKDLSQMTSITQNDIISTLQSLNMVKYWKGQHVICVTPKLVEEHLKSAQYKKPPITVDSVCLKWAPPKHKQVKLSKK
Put plainly: KAT-8 Enzyme Assay: Enzyme assay buffer was 50 mM Tris pH 8.0, 0.002% Tween20, 0.005% bovine skin gelatin, and 1 mM dithiothreitol (DTT). For determination of IC50values, compounds were serially diluted with 2% (v/v) DMSO in the final reaction, pre-incubating each dilution of each compound with 40 μL of assay buffer containing KAT-8 enzyme (12.5 nM final concentration). 10 μL of assay buffer containing 1 μM peptide substrate and 5 μM acetyl coenzyme A (final concentrations) was added. Reactions (50 μL total) were then carried out at 25° C. for 90 minutes. Reactions were terminated by the addition of 0.5% formic acid (final concentration), and a sample of each reaction was analyzed by SAMDI Tech, Inc. (Chicago, Ill.) using self-assembled monolayer desorption/ionization time-of-flight mass spectrometry (Mrksich, M. (2008) Mass spectrometry of self-assembled monolayers: a new tool for molecular surface science. ACS Nano 2, 7-18).

Test [3] addresses Histone acetyltransferase KAT7 (Homo sapiens, UniProt O95251). Put plainly: KAT-7 Enzyme Assay: Enzyme assay buffer was 50 mM Tris pH 8.0, 0.002% Tween20, 0.005% bovine skin gelatin, and 1 mM dithiothreitol (DTT). For determination of IC50values, compounds were serially diluted with 2% (v/v) DMSO in the final reaction, pre-incubating each dilution of each compound with 40 μL of assay buffer containing KAT-7 enzyme (6 nM final concentration). 10 μL of assay buffer containing 1 μM peptide substrate and 2 μM acetyl coenzyme A (final concentrations) was added. Reactions (50 μL total) were then carried out at 25° C. for 120 minutes. Reactions were terminated by the addition of 0.5% formic acid (final concentration), and a sample of each reaction was analyzed by SAMDI Tech, Inc. (Chicago, Ill.) using self-assembled monolayer desorption/ionization time-of-flight mass spectrometry (Mrksich, M. (2008) Mass spectrometry of self-assembled monolayers: a new tool for molecular surface science. ACS Nano 2, 7-18).

Test [4] concerns the target Histone acetyltransferase KAT5 (Homo sapiens, UniProt Q92993). Nature of the test: KAT-5 Enzyme Assay: Enzyme assay buffer was 50 mM Tris pH 8.0, 0.002% Tween20, 0.005% bovine skin gelatin, and 1 mM dithiothreitol (DTT). For determination of IC50values, compounds were serially diluted with 2% (v/v) DMSO in the final reaction, pre-incubating each dilution of each compound with 40 μL of assay buffer containing KAT-5 enzyme (9 nM final concentration). 10 μL of assay buffer containing 1 μM peptide substrate and 0.5 μM acetyl coenzyme A (final concentrations) was added. Reactions (50 μL total) were then carried out at 25° C. for 90 minutes. Reactions were terminated by the addition of 0.5% formic acid (final concentration), and a sample of each reaction was analyzed by SAMDI Tech, Inc. (Chicago, Ill.) using self-assembled monolayer desorption/ionization time-of-flight mass spectrometry (Mrksich, M. (2008) Mass spectrometry of self-assembled monolayers: a new tool for molecular surface science. ACS Nano 2, 7-18).

Sequence of Histone acetyltransferase KAT5 (Q92993 whole entry): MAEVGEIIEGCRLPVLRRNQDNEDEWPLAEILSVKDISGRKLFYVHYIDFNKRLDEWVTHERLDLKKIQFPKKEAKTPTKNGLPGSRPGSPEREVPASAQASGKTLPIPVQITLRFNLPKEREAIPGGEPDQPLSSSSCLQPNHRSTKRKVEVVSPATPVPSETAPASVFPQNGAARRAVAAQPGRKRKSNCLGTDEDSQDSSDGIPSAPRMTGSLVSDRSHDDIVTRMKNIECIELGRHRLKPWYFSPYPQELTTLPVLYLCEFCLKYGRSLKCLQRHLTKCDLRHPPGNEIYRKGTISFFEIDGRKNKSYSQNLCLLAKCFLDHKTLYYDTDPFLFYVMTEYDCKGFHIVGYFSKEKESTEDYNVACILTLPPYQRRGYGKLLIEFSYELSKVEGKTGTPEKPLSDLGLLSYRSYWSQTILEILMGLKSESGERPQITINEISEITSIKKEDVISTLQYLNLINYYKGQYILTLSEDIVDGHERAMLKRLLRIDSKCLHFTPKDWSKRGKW
Sequence of Histone acetyltransferase KAT7 (O95251 whole entry): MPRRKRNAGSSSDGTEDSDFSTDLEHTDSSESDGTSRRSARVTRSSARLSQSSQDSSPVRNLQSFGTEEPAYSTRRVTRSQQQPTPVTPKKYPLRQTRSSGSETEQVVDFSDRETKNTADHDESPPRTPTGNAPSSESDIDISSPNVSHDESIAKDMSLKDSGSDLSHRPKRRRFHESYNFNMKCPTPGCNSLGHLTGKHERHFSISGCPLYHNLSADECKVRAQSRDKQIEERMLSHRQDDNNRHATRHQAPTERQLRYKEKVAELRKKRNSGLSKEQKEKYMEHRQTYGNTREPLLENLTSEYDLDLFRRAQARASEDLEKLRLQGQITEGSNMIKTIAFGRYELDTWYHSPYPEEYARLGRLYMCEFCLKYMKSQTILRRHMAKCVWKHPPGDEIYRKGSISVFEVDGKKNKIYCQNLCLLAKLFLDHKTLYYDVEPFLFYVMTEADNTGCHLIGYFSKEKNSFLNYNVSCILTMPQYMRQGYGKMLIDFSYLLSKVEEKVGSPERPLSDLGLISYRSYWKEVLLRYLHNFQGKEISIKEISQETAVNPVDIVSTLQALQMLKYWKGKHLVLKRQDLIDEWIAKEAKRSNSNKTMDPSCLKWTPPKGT

For `COc1ccc(S(=O)(=O)NNC(=O)c2cc(-c3cn(C)cn3)cc(Cl)c2F)nc1`, the IC50 – broadly, the point on the concentration scale where inhibition reaches its midpoint – is less than 10 µM in test [1], “in the range around 30 µM” in test [2], less than 10 µM in test [3] and less than 10 µM in test [4].
Take `COc1ccc(S(=O)(=O)NNC(=O)c2cc(-c3cn(C)cn3)cc(Cl)c2F)c(F)c1`: the IC50 is less than 10 µM in test [1], “in the range around 30 µM” in test [2], less than 10 µM in test [3] and less than 10 µM in test [4].
`CNc1cccc(S(=O)(=O)NNC(=O)c2cc(-c3cn(C)cn3)cc(Cl)c2F)c1`: the IC50 in test [1] was less than 10 µM; in test [2], “in the range around 30 µM”; in test [3], less than 10 µM; in test [4], less than 10 µM.
Consider `Cn1cnc(-c2cc(Cl)c(F)c(C(=O)NNS(=O)(=O)c3ccccc3F)c2)c1`, for which the IC50 in test [1] is less than 10 µM; in test [2], “in the range around 30 µM”; in test [3], less than 10 µM; in test [4], less than 10 µM.
For `COc1ccc(S(=O)(=O)NNC(=O)c2cc(-c3cn(C)cn3)cc(Cl)c2F)cc1`, the IC50 in test [1] was less than 10 µM; in test [2], “in the range around 30 µM”; in test [3], less than 10 µM; in test [4] it was less than 10 µM.
